Here are results for 13 compounds from patent publication US11970493B2, “Autotaxin inhibitor compounds” (ILDONG PHARMACEUTICAL CO., LTD., priority 2020, dated 2024).

One series concerns the target hATX/ENPP2 (Homo sapiens, UniProt Q13822). Briefly: hATX/ENPP2 biochemical assay using 16:0-LPC as substrate (Amplex Red/choline oxidase/HRP fluorescence). The conditions noted are these: hENPP2 2.5 nM, LPC (16:0) substrate. The gist of the method: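 Enzyme preincubated with compounds 15 min at room temperature in 50 mM Tris-HCl pH 8.0, 140 mM NaCl, 5 mM CaCl2, 0.01% Triton X-100. Reaction started with 80 μM LPC (16:0) stock plus Amplex Red/choline oxidase/HRP mix; fluorescence (ex 530/em 590 nm) read kinetically. IC50 from slope between 60 and 70 min.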

Series [1] in a line: Mouse PK study (IV and PO). Type of series: in vivo. The settings on record: male, C57BL/6, mouse, plasma, male C57BL/6 mice; for AUC(0-inf): IV 2 mg/kg and PO 10 mg/kg study; for bioavailability / Cmax: po, 10 mg/kg; for bioavailability: IV 2 mg/kg and PO 10 mg/kg, read-out: F % (bioavailability); for Cmax: PO group 10 mg/kg. The procedure:
This example describes the pharmacokinetic (PK) data obtained for various compounds of the present disclosure, from studies using mice. The following PK parameters were calculated: • Bioavailability (F %) were calculated using the linear/log trapezoidal rule • Peak plasma concentrations (Cmax (ng/mL)) were taken directly from the plasma concentration vs. time profiles for the PO group • Area under the curve e.g., the area under the concentration curve from time 0 to infinity (AUC0-inf(ng*h/mL)). Experimental Procedures
After intravenous (IV) and oral (PO) administration at 2 mg/kg and 10 mg/kg to male C57BL/6 mice, respectively, the blood samples were collected at the designed sampling time points. All blood samples were transferred into pre-chilled commercial polyethylene microcentrifuge tubes containing K2-EDTA as an anticoagulant. Samples were processed for plasma by centrifugation. Plasma samples was transferred into polypropylene tubes pre-chilled on dry ice and then quickly frozen over dry ice and kept at −70±10° C. until LC-MS/MS analysis. Mice plasma samples were analyzed using qualified bioanalytical methods based on protein precipitation followed by LC-MS/MS analysis. Individual plasma concentration data of each compound was subjected to noncompartmental pharmacokinetic analysis using Phoenix WinNonlin™. Nominal doses were used for pharmacokinetic parameters calculation.

Series [2] concerns LPA 18:2 level in rat plasma. The series can be described thus: In vitro LPA assay, reduction of LPA 18:2 level in rat plasma (LC-MS/MS). Type of series: biochemical. The conditions noted are these: 2 hr at 37° C., LPA 18:2 reduction. The protocol:
(§1) Autotaxin (ATX) plays an important role in lysophosphatidic acid (LPA) signaling. An in vitro LPA assay was conducted to determine IC50 values of the test compounds on reduction of LPA 18:2 level in rat or mouse plasma. This example describes the assay data (IC50 value ranges) of exemplary compounds from LPA assays using mouse and rat plasma. Compound GPLG-1690 was assayed as a reference compound.
(§2) The 10 mM DMSO stock solutions of test compounds and 4-fold serial dilutions of the test compounds were prepared at various concentrations. The diluted solutions of the compounds were diluted with 1×PBS (pH 7.5) buffer. 38 μL of rat or mouse plasma samples were mixed with 2 μL of the diluted solutions of the compounds or 2% DMSO solutions in 96-well plate (final 0.1% DMSO). After incubating for 2 hr at 37° C., 120 μL MeOH containing IS (250 ng/mL of LPA 17:0) was added to each well. Mixture was vortexed for 1 min, and then centrifuged for 30 min (4000 rpm, 4° C.). 100 μL supernatant was transferred to a 96-well plate containing 100 μL pure water and the plate was shaken for 10 min. 5 μL supernatant was injected into LC-MS/MS system. No calibration curve will be prepared for LPA 18:2 and all quantifications were performed based on peak area ratios (LPA 18:2/LPA 17:0). For each concentration of compound LPA data were expressed as percentage of reduction (% reduction) using the formula. 100−[((LPA ratio-LPA ratio in control sample after 0 hr incubation)/(LPA ratio in control sample after 2 hr incubation—LPA ratio in control sample after 0 hr incubation))*100]. Data

Series [3] concerns LPA 18:2 level in mouse plasma. Briefly: In vitro LPA assay, reduction of LPA 18:2 level in mouse plasma (LC-MS/MS). Type of series: biochemical. The conditions noted are these: 2 hr at 37° C., LPA 18:2 reduction. The protocol:
as §1, §2

A word on the IC50: it is the concentration that inhibits the measured activity by half. High values mean weaker potency, low ones greater potency. In general, AUC(0-inf) refers to total exposure, with the tail of the curve extrapolated. Read a high AUC(0-inf) as high exposure. What is called bioavailability is dose-corrected exposure relative to a reference, in per cent. As a reminder, the Cmax is the highest concentration seen after dosing.

Regarding `CCc1nc2ccc(-c3cnc(N4CCN(C(=O)C5(CO)CC5)CC4)nc3)cn2c1N(C)c1nc(-c2ccc(F)cc2)c(C#N)s1` [Compound 10, 2-((2-ethyl-6-(2-(4-(1-(hydroxymethyl)cyclopropane-1-carbonyl)piperazin-1-yl)pyrimidin-5-yl)imidazo[1,2-a]pyridin-3-yl)(methyl)amino)-4-(4-fluorophenyl)thiazole-5-carbonitrile], the results for the IC50 (against hATX/ENPP2; in series [2]; in series [3]) were ≤ 20 nM, ≤ 200 nM and 200 to 800 nM, respectively. Further, the AUC(0-inf) in series [1] turned out to be 26700 ng·h/mL. The bioavailability in series [1] is 28%. The compound also showed a maximum concentration (Cmax) in series [1] of 4950 ng/mL.
Regarding `CCc1nc2ccc(-c3cnc(N4CC(NC5(CO)CC5)C4)nc3)cn2c1N(C)c1nc(-c2ccc(F)cc2)c(C#N)s1` [Compound 30, 2-((2-ethyl-6-(2-(3-((1-(hydroxymethyl)cyclopropyl)amino)azetidin-1-yl)pyrimidin-5-yl)imidazo[1,2-a]pyridin-3-yl)(methyl)amino)-4-(4-fluorophenyl)thiazole-5-carbonitrile], the IC50 on hATX/ENPP2 was in the range of 20 to 200 nM; in series [2], 200 to 800 nM; in series [3] it was 200 to 800 nM. Further, the total exposure AUC(0-inf) in series [1] turned out to be 21700 ng·h/mL. For the same compound, the bioavailability in series [1] came to 42%. In addition, the peak level in series [1] (Cmax) was 4310 ng/mL.
For `CCc1nc2ccc(-c3cnc(N4CCN(C(=O)N5CCCC5)CC4)nc3)cn2c1N(C)c1nc(-c2ccc(F)cc2)c(C#N)s1` [Compound 42, 2-((2-ethyl-6-(2-(4-(pyrrolidine-1-carbonyl)piperazin-1-yl)pyrimidin-5-yl)imidazo[1,2-a]pyridin-3-yl)(methyl)amino)-4-(4-fluorophenyl)thiazole-5-carbonitrile], the IC50 at hATX/ENPP2 is ≤ 20 nM; in series [2] it was 200 to 800 nM; in series [3] it was 200 to 800 nM.
For `CCc1nc2ccc(-c3cnc(N4CCN(C(=O)N5CC[C@@H](O)C5)CC4)nc3)cn2c1N(C)c1nc(-c2ccc(F)cc2)c(C#N)s1` [Compound 43, (R)-2-((2-ethyl-6-(2-(4-(3-hydroxypyrrolidine-1-carbonyl)piperazin-1-yl)pyrimidin-5-yl)imidazo[1,2-a]pyridin-3-yl)(methyl)amino)-4-(4-fluorophenyl)thiazole-5-carbonitrile], the half-inhibitory concentration (IC50) at hATX/ENPP2 is ≤ 20 nM. For the same compound, in series [1], the AUC(0-inf) was determined as 31000 ng·h/mL, the bioavailability came to 39.5% and the Cmax was determined as 5170 ng/mL. In addition, in series [2], the IC50 was ≤ 200 nM. Moreover, the concentration for half-maximal inhibition (IC50) in series [3] was ≤ 200 nM.
For the compound `CCc1nc2ccc(-c3cnc(N4CCN(C(=O)N5CC[C@H](O)C5)CC4)nc3)cn2c1N(C)c1nc(-c2ccc(F)cc2)c(C#N)s1` [Compound 44, (S)-2-((2-ethyl-6-(2-(4-(3-hydroxypyrrolidine-1-carbonyl)piperazin-1-yl)pyrimidin-5-yl)imidazo[1,2-a]pyridin-3-yl)(methyl)amino)-4-(4-fluorophenvl)thiazole-5-carbonitrile], the IC50 was ≤ 20 nM at hATX/ENPP2, 200 to 800 nM in series [2] and 200 to 800 nM in series [3]. This compound came in with an area under the curve AUC(0-inf) in series [1] of 25000 ng·h/mL. The bioavailability in series [1] is 33.4%. This compound also yielded a Cmax in series [1] of 4730 ng/mL.
Regarding `CCc1nc2ccc(-c3ccc(N4CCN(C(=O)N5CCCC5)CC4)nc3)cn2c1N(C)c1nc(-c2ccc(F)cc2)c(C#N)s1` [Compound 85, 2-((2-ethyl-6-(6-(4-(pyrrolidine-1-carbonyl)piperazin-1-yl)pyridin-3-yl)imidazo[1,2-a]pyridin-3-yl)(methyl)amino)-4-(4-fluorophenyl) thiazole-5-carbonitrile], the IC50 is 20 to 200 nM against hATX/ENPP2, ≤ 200 nM in series [2] and 200 to 800 nM in series [3].
For `CCc1nc2ccc(-c3ccc(C(=O)N4CCCC4)nc3)cn2c1N(C)c1nc(-c2ccc(F)cc2)c(C#N)s1` [Compound 87, 2-((2-ethyl-6-(6-(pyrrolidine-1-carbonyl)pyridin-3-yl)imidazo[1,2-a]pyridin-3-yl)(methyl)amino)-4-(4-fluorophenyl)thiazole-5-carbonitrile], the 50% inhibitory concentration (IC50) at hATX/ENPP2 lay within 20 to 200 nM; in series [2] it was 200 to 800 nM; in series [3] it was 200 to 800 nM.
Take `CCc1nc2ccc(-c3ccc(N4CCN(C(=O)C5(CO)CC5)CC4)nc3)cn2c1N(C)c1nc(-c2ccc(F)cc2)c(C#N)s1` [Compound 93, 2-((2-ethyl-6-(6-(4-(1-(hydroxylmethyl)cyclopropane-1-carbonyl)piperazin-1-yl)pyridin-3-yl)imidazo[1,2-a]pyridin-3-yl) (methyl)amino)-4-(4-fluorophenyl)thiazole-5-carbonitrile]: the 50% inhibitory concentration (IC50) on hATX/ENPP2 is ≤ 20 nM; in series [2] it was ≤ 200 nM; in series [3], 200 to 800 nM.
The like results for `CCc1nc2ccc(-c3ccc(N4CC(NC5(CO)CC5)C4)nc3)cn2c1N(C)c1nc(-c2ccc(F)cc2)c(C#N)s1` [Compound 109, 2-((2-ethyl-6-(6-(3-((1-(hydroxymethyl)cyclopropyl)amino)azetidin-1-yl)pyridin-3-yl)imidazo[1,2-a]pyridin-3-yl)(methyl)amino)-4-(4-fluorophenyl)thiazole-5-carbonitrile] were, in that order, 20 to 200 nM, ≤ 200 nM and 200 to 800 nM.
Consider `CCc1nc2ccc(-c3ccc(N4CCC(C(=O)N5CCNCC5)CC4)nc3)cn2c1N(C)c1nc(-c2ccc(F)cc2)c(C#N)s1` [Compound 118, 2-((2-ethyl-6-(6-(4-(piperazine-1-carbonyl)piperidin-1-yl)pyridin-3-yl)imidazo[1,2-a]pyridin-3-yl) (methyl)amino)-4-(4-fluorophenyl)thiazole-5-carbonitrile], for which the values for the half-maximal inhibitory concentration (IC50) (at hATX/ENPP2; in series [2]; in series [3]) were ≤ 20 nM, ≤ 200 nM and 200 to 800 nM, respectively.
Take `CCc1nc2ccc(-c3ccc(N4CCC(C(=O)N5CCCCC5)CC4)nc3)cn2c1N(C)c1nc(-c2ccc(F)cc2)c(C#N)s1` [Compound 121, 2-((2-ethyl-6-(6-(4-(piperidine-1-carbonyl)piperidin-1-yl)pyridin-3-yl)imidazo[1,2-a]pyridin-3-yl)(methyl)amino)-4-(4-fluorophenyl)thiazole-5-carbonitrile]: the results for the IC50 (against hATX/ENPP2; in series [2]; in series [3]) were 20 to 200 nM, ≤ 200 nM and 200 to 800 nM, respectively.
Regarding `CCc1nc2ccc(-c3cnc(N4CC(C(=O)N5CCC5)C4)nc3)cn2c1N(C)c1nc(-c2ccc(F)cc2)c(C#N)s1` [Compound 125, 2-((6-(2-(3-(azetidine-1-carbonyl)azetidin-1-yl)pyrimidin-5-yl)-2-ethylimidazo[1,2-a]pyridin-3-yl)(methyl)amino)-4-(4-fluorophenyl)thiazole-5-carbonitrile], the concentration for half-maximal inhibition (IC50) against hATX/ENPP2 is 20 to 200 nM; in series [2], ≤ 200 nM; in series [3], 200 to 800 nM.
The like results for `CCc1nc2ccc(-c3cnc(N4CCC(C(=O)N5CCOCC5)CC4)nc3)cn2c1N(C)c1nc(-c2ccc(F)cc2)c(C#N)s1` [Compound 127, 2-((2-ethyl-6-(2-(4-(morpholine-4-carbonyl)piperidin-1-yl)pyrimidin-5-yl)imidazo [1,2-a]pyridin-3-yl)(methyl)amino)-4-(4-fluorophenyl)thiazole-5-carbonitrile] were, in that order, ≤ 20 nM, ≤ 200 nM and 200 to 800 nM.
